Experimental data published in patent publication EP0338042B1, “COMPOSITION AND METHOD FOR TREATING HEPATITIS VIRUS INFECTIONS USING 1-(2'-DEOXY-2'-FLUORO-BETA-D-ARABINOFURANOSYL)-5-ETHYLURACIL” (priority 1987, dated 1989).
“And” between values parts separate entries of the source, which are not always exact repeats. Equal values may be shown once. Read-outs that look alike come from different tables or passages of the source. Marks after values point to notes of the source that are not given here.

Key:
HL-60 CELLS = experiment: Inhibition of cell growth; format: cell-based; conditions: Homo sapiens, HL-60, read-out: ED50 FOR INHIBITING CELL GROWTH IN HL-60 CELLS
HSV-2 (STRAIN G) = conditions: cited from earlier work; for MDD: calculated on day 21; for %WT GAIN ON DAY 7 / %WT GAIN ON DAY 14 / %WT GAIN ON DAY 21 / %WT GAIN ON DAY 30: compared to day 1
[1] = tested on: simian varicella virus (SVV); experiment: Simian varicella virus infection in the African green monkey; conditions: for VIREMIA - MEAN PFU ON DAYS P.I. 3: IV twice daily for ten days from 48 hours after inoculation; for VIREMIA - MEAN PFU ON DAYS P.I. 5 / VIREMIA - MEAN PFU ON DAYS P.I. 7 / VIREMIA - MEAN PFU ON DAYS P.I. 9 / VIREMIA - MEAN PFU ON DAYS P.I. 11: IV twice daily for ten days
HSV-1(F) = experiment: Plaque reduction assay in Vero cells; format: cell-based; conditions: monkey
Text: (§1) With FMAU as a lead compound, the syntheses of other 5-alkyl substituted 2′-fluoro-ara-uracils were undertaken (8, 9), including 1-(2′-deoxy-2′-fluoro-beta-D-arabinofuranosyl)-5-ethyluracil [FEAU].

HSV-2(G) = experiment: Plaque reduction assay in Vero cells; format: cell-based; conditions: monkey
Text: as §1

[2] = tested on: HSV-1 INFECTED VERO CELLS; experiment: Incorporation of 2-14C-labeled nucleoside into DNA of cells; format: cell-based, African green monkey; conditions: [2-14C] labeled nucleoside
Text: (§2) There was no detectable incorporation of FEAU radioactivity into the DNA of either L-1210 or Vero cell lines, but substantial amounts of FMAU radioactivity were incorporated into the DNA of both cell lines. When HSV-1 infected Vero cells were exposed to ¹⁴C-labeled FEAU and FMAU, both nucleosides incorporated into the DNA of these virus-infected cells.

VERO = experiment: as above; format: cell-based, African green monkey; conditions: FEAU also not detectable at 100 μM
Text: as §2

[3] = FEAU 10 MG/KG/DAY, single surviving animal only
[4] = FEAU 3 MG/KG/DAY, one line per monkey
[5] = FEAU 10 MG/KG/DAY, one line per monkey
[6] = FEAU 30 MG/KG/DAY, one line per monkey

## CCc1cn([C@@H]2O[C@H](CO)[C@@H](O)[C@@H]2F)c(=O)[nH]c1=O [FEAU, 1-(2'-deoxy-2'-fluoro-beta-D-arabino-furanosyl)-5-ethyl-uracil]
HL-60 CELLS
  EC50: 2060 µM
HSV-2 (STRAIN G); FEAU 10 MG/KG/DAY, twice a day for 4 days from 5 hr after inoculation
  MDD: 9.4
HSV-2 (STRAIN G); FEAU 10 MG/KG/DAY, twice a day for 4 days
  % SURVIVORS: 8%
HSV-2 (STRAIN G); FEAU 10 MG/KG/DAY
  %WT GAIN ON DAY 7: -7%
HSV-2 (STRAIN G); [3]
  %WT GAIN ON DAY 14: -13^+ %
  %WT GAIN ON DAY 21: 31^+ %
  %WT GAIN ON DAY 30: 36^+ %
HSV-2 (STRAIN G); FEAU 50 MG/KG/DAY, twice a day for 4 days from 5 hr after inoculation
  MDD: 11.8
HSV-2 (STRAIN G); FEAU 50 MG/KG/DAY, twice a day for 4 days
  % SURVIVORS: 25%
HSV-2 (STRAIN G); FEAU 50 MG/KG/DAY
  %WT GAIN ON DAY 7: 3%
  %WT GAIN ON DAY 14: -10%
  %WT GAIN ON DAY 21: 16%
  %WT GAIN ON DAY 30: 25%
HSV-2 (STRAIN G); FEAU 100 MG/KG/DAY, twice a day for 4 days from 5 hr after inoculation
  MDD: 11.0
HSV-2 (STRAIN G); FEAU 100 MG/KG/DAY, twice a day for 4 days
  % SURVIVORS: 72%
HSV-2 (STRAIN G); FEAU 100 MG/KG/DAY
  %WT GAIN ON DAY 7: 2%
  %WT GAIN ON DAY 14: 7%
  %WT GAIN ON DAY 21: 13%
  %WT GAIN ON DAY 30: 13%
HSV-2 (STRAIN G); FEAU 200 MG/KG/DAY, twice a day for 4 days, parentheses: death of a single animal
  MDD: (14)^#
HSV-2 (STRAIN G); FEAU 200 MG/KG/DAY, twice a day for 4 days
  % SURVIVORS: 93%
HSV-2 (STRAIN G); FEAU 200 MG/KG/DAY
  %WT GAIN ON DAY 7: 0%
  %WT GAIN ON DAY 14: 1%
  %WT GAIN ON DAY 21: 9%
  %WT GAIN ON DAY 30: 13%
HSV-2 (STRAIN G); HSV-2 infected mice, doses of 100-200 mg/kg/day
  toxicity: no toxicity was observed
[1]; Cercopithecine alphaherpesvirus 9, in Primates
  minimal effective dose: ~1 mg/kg/day
[1]; FEAU 1 MG/KG/DAY by stomach tube twice daily for ten days, one line per monkey
  RASH -SEVERITY ON DAYS P.I. 9: ±
[1]; [4]
  VIREMIA - MEAN PFU ON DAYS P.I. 3: 1 PFU and 0 PFU
  VIREMIA - MEAN PFU ON DAYS P.I. 5: 8 PFU and 1 PFU
  VIREMIA - MEAN PFU ON DAYS P.I. 7: 0 PFU and 1 PFU
  VIREMIA - MEAN PFU ON DAYS P.I. 9: 0 PFU
  VIREMIA - MEAN PFU ON DAYS P.I. 11: 0 PFU
[1]; [5]
  VIREMIA - MEAN PFU ON DAYS P.I. 3: 1 PFU and 0 PFU
  VIREMIA - MEAN PFU ON DAYS P.I. 5: 14 PFU and 1 PFU
  VIREMIA - MEAN PFU ON DAYS P.I. 7: 5 PFU and 1 PFU
  VIREMIA - MEAN PFU ON DAYS P.I. 9: 0 PFU
  VIREMIA - MEAN PFU ON DAYS P.I. 11: 0 PFU
[1]; [6]
  VIREMIA - MEAN PFU ON DAYS P.I. 3: 1 PFU and 2 PFU
  VIREMIA - MEAN PFU ON DAYS P.I. 5: 0 PFU
  VIREMIA - MEAN PFU ON DAYS P.I. 7: 0 PFU
  VIREMIA - MEAN PFU ON DAYS P.I. 9: 0 PFU
  VIREMIA - MEAN PFU ON DAYS P.I. 11: 0 PFU
[1]; intravenous route, 30, 10 and 3 mg/kg/day x 10
  rash: none of the FEAU-treated monkeys developed rash
[1]; intravenous route, 30, 10 and 3 mg/kg/day x 10, all treated monkeys
  hematology tests and serum chemistries: normal
[1]; intravenous route, three dose levels up to 30 mg/kg/day x 10
  toxicity: no apparent toxicity
[1]; lower dose of 1 mg/kg/day
  rash: prevented development of rash
  viremia: did not reduce viremia in two of three monkeys
[1]; oral administration, 10, 3 or 1 mg/kg/day x 10
  viremia: reduced viremia significantly
[1]; oral route, 10 mg/kg/day x 10
  toxicity: without any observed toxicity
HSV-1(F)
  THER. INDEX ID₅₀/ED₉₀ HSV-1: 769
HSV-2(G)
  THER. INDEX ID₅₀/ED₉₀ HSV-2: 220
[2]
  INCORPORATION INTO DNA AT 10μM, HSV-1 INFECTED VERO CELLS: 0.48 p MOLE/10^6 CELLS/HR
VERO
  INCORPORATION INTO DNA AT 10μM, VERO: NOT DETECTABLE*
